Values quoted from earlier work as cited in patent US20070297991A1, “NEURAL CONDUIT AGENT DIS[…] SMOKING CESSATION AND OTHER APPLICATIONS” (MINU, L.L.C., priority 2006, published 2007).

Conditions: in vivo

Q: With `CN1CCCC1c1cccnc1` (stereo not shown) [nicotine] as the compound, how does the plasma half-life read?
A: The plasma half-life was “approximately two”.
